Records with an inconclusive call do not appear. Activity calls are given as the source filed them.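 Rule for the calls: active = EC50 no more than tenfold above the top concentration tested; inconclusive = flat fit with effect between 30% and 70%, or unusable fit; inactive = EC50 beyond tenfold above the top dose.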
Test system: BJeLR fibroblast viability, alamar blue fluorescence, 48 h
Experiment: growth inhibition of engineered Ras-driven BJ cells – cell-based, alamar blue fluorescence, cherrypicked samples, dose response (AID 2631)

SMILES | EC50
CCc1ccc(/C=C2/SC(=S)N(CCC(=O)NCCCN3CCOCC3)C2=O)cc1 | > 6.67 µM (inactive)
CCc1ccc(/C=C2\SC(=S)N(CCC(=O)NCCCN3CCOCC3)C2=O)cc1 | > 6.67 µM (inactive)
